Measured values published in patent US7232829B2, “Therapeutic compounds and methods” (Regents of the University of Minnesota, priority 2001, dated 2007).
Where two headings read alike, the source gives them in different places.

Tests used:
[1] = test system: guinea-pig ileal longitudinal muscle (GPI); assay: Agonist activity in the GPI assay (concentration-response compared to morphine, reversal by antagonists); type: cell-based
Protocol: (§1) Smooth Muscle Preparations. […] All of the compounds were tested on the electrically stimulated guinea-pig ileal longitudinal muscle (GPI), see Rang, H. P. Stimulant Actions of Volatile Anaesthetics on Smooth Muscle. Br. J. Pharmacol. 1964, 22, 356–365, and the mouse vas-deferens (MVD), see Henderson, G.; Hughes, J.; Kosterlitz, H. W. A New Example of a Morphine-Sensitive Neuroeffector Junction: Adrenergic Transmission in the Mouse vas Deferens. Br. J. Pharmacol. 1972, 46, 764–766, preparations for their agonist and antagonist activities as previously described, see (a) Portoghese, P. S.; Lipkowski, A. W.; Takemori, A. E. Binaltorphimine and Nor-binaltorphimine, Potent and Selective Kappa-Opioid Receptor Antagonists. Life Sci. 1987, 40, 1287–1292. (b) Portoghese, P. S.; Takemori, A. E. TENA. A Selective Kappa Opioid Receptor Antagonist. Life Sci. 1985, 36, 801–805. […] Morphine (M), (−)-ethylketazocine (EK), and [D-Ala^2,D-Leu^5]enkephalin (DADLE) were employed as mu, kappa and delta selective agonists, respectively. Morphine and EK were used in the GPI, and DADLE was employed in the MVD studies. Concentration-response curves were obtained in the absence (control) and presence of the antagonist in the same preparation. Antagonist potency is expressed as an IC50 ratio, that is the IC50 of the agonist in the presence of antagonist divided by the control IC50 of the agonist in the same preparation, and as a Ke value derived from the relationship, Ke=[antagonist]/[…].

[2] = test system: mouse vas-deferens (MVD); assay: Agonist activity in the MVD assay; type: cell-based; settings: at 1 μM
Protocol: as §1, with “Concentration-response curves were obtained in the absence (control) and presence of the antagonist in the same preparation.” left out

[3] = molecular target: T1, rat kappa-opioid receptor (Rattus norvegicus, UniProt P34975); assay: [3H]diprenorphine binding on transiently transfected HEK-293 cells, kappa; settings: for Ki: [3H]diprenorphine, HEK-293 cells, rat kappa receptor, read-out: Ki κ
T1 construct: expressed in transfected cells; host or cells: HEK-293 (transient, calcium phosphate)
T1 sequence (P34975 whole entry): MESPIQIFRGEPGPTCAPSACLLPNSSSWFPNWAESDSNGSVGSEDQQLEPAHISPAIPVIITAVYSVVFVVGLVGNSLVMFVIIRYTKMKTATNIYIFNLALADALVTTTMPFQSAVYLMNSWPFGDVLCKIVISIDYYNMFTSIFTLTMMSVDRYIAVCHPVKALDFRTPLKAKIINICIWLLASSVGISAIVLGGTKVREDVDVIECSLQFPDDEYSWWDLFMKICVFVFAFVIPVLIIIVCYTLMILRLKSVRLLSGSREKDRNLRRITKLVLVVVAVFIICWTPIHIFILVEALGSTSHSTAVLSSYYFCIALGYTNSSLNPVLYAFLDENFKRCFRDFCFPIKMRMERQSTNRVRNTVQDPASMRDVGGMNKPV
Protocol: (§2) Receptor Binding. HEK-293 in DMEM (Gibco, BRL) supplemented with 10% Bovine Calf Serum (Hyclone) and 1% penicillin/streptomycin (Gibco, BRL) were maintained at 37° C. and in 5% CO2. Cells were seeded at 16% for 24 hours prior to transfection. Fresh media was added 2 hours prior to transfection. Cells were transfected with plasmid DNA (20 μg/100 mm plate) of either wild type or mutant receptor cDNA using the calcium phosphate precipitation method, see Chen, C.; Okayama, H. High Efficiency Transformation of Mammalian Cells by Plasmid DNA. Mol. Cell. Bio. 1987, 7, 2745–2752. Media was changed 5 hours after transfection. Transfected cells were harvested 48–72 hours after transfection for binding studies.
(§3) Sixty to 72 hours after transfection, HEK cells were washed three times with 25 mM HEPES buffer (pH 7.4) and were resuspended with 8–12 mL of 25 mM HEPES/100 mm plate. Saturation binding assays were performed in triplicate. Nonselective binding was determined using 10 μM naltrexone. Assays were incubated at room temperature for 90 minutes in a total binding volume of 0.5 mL and were terminated by filtration through a Whatman GF/B filter that had been presoaked in 0.25% poly(ethyleneimine) immediately prior to filtration. Filters were washed three times with 4 mL of ice-cold 25 mM HEPES buffer, and scintillation counting was performed with a Beckman 3801 LS Scintillation Counter. Protein concentrations were determined by the method of Bradford, see Bradford, M. M. A Rapid and Selective Method for the Quantitation of Microgram Quantities of Protein utilizing the Principle of Protein-dye Binding. Anal. Biochem. 1976, 72, 248–254. Raw binding data was analyzed with RADLIG and LIGAND (G. A. McPherson, Biosoft, Cambridge, UK). Inhibition constants (Ki) were determined from IC50 values with the Cheng-Prusoff equation, see Cheng, Y. C.; Prusoff, W. H.; Relationship between the inhibition Constant (Ki) and the concentration of inhibitor which causes 50 per cent inhibition (I50) of an enzymatic reaction. Biochem. Pharmacol. 1973, 22, 3099–3108.
(§4) As summarized in Table 2, receptor binding was determined in triplicate using [^3H]diprenorphine on HEK-293 cells that were transiently transfected with plasmids encoding rat kappa-, rat mu-, or mouse delta-opioid receptors.

[4] = molecular target: T2, mouse delta-opioid receptor (Mus musculus, UniProt P32300); assay: [3H]diprenorphine binding on transiently transfected HEK-293 cells, delta; settings: for Ki: [3H]diprenorphine, HEK-293 cells, mouse delta receptor, read-out: Ki δ; for binding to delta receptor (in words): cloned receptors, HEK-293
T2 construct: expressed in transfected cells; host or cells: HEK-293 (transient, calcium phosphate)
T2 sequence (P32300 whole entry): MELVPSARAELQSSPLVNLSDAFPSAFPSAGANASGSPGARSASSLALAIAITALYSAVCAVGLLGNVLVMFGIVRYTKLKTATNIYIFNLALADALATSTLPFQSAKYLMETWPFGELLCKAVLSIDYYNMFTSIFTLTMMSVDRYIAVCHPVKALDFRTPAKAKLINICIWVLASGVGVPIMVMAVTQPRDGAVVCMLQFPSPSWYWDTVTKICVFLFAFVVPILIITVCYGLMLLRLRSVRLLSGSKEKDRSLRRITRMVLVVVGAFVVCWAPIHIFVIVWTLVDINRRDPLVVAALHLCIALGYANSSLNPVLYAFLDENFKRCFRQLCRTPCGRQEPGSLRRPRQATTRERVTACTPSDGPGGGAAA
Protocol: as §2, §3
As summarized in Table 2, receptor binding was determined in triplicate using [^3H]diprenorphine on HEK-293 cells that were transiently transfected with plasmids encoding rat kappa-, rat mu-, or mouse delta-opioid receptors. […] The results are consistent with the kappa agonist selectivity of compound 4b observed in the GPI. […] Binding to mu receptors was uniformly low for all regioisomers.

[5] = molecular target: T3, rat mu-opioid receptor (Rattus norvegicus, UniProt P33535); assay: [3H]diprenorphine binding on transiently transfected HEK-293 cells, mu; settings: for Ki: [3H]diprenorphine, HEK-293 cells, rat mu receptor, read-out: Ki μ
T3 construct: expressed in transfected cells; host or cells: HEK-293 (transient, calcium phosphate)
T3 sequence (P33535 whole entry): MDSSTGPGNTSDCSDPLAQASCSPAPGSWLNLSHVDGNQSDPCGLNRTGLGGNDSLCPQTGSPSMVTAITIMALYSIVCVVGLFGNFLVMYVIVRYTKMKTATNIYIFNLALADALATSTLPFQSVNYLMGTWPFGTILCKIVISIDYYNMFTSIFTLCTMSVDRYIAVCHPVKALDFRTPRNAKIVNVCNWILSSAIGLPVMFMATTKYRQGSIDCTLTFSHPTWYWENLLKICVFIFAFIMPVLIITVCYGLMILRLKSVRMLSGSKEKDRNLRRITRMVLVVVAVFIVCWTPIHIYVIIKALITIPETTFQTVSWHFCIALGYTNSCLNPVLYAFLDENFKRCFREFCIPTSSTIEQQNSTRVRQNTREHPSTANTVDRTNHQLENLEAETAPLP
Protocol: as §2, §3, §4

[6] = molecular target: T4, kappa opioid receptor (Cavia porcellus, UniProt P41144); assay: Antagonism of ethylketazocine (EK) in the electrically stimulated guinea-pig ileal longitudinal muscle (GPI) preparation; type: cell-based; settings: for EK (κ) IC50 ratio: GPI, antagonist tested at 100 nM, mean (n)
T4 construct: tested on the electrically stimulated guinea-pig ileal longitudinal muscle (GPI); from tissue; host or cells: guinea-pig ileal longitudinal muscle
T4 sequence (P41144 whole entry): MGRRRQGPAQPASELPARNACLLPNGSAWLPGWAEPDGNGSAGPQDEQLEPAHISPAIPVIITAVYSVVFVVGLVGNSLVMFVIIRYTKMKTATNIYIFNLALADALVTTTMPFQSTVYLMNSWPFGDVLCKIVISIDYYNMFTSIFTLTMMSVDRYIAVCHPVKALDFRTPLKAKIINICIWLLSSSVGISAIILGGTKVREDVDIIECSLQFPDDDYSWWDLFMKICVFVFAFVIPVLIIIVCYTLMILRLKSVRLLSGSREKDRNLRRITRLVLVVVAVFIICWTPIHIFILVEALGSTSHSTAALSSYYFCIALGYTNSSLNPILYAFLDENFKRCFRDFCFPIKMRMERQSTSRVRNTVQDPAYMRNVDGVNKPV
Protocol: as §1

[7] = molecular target: T5, delta opioid receptor (Mus musculus, UniProt P32300); assay: Antagonism of DADLE in the mouse vas-deferens (MVD) preparation; type: cell-based; settings: for DADLE (δ) IC50 ratio: MVD, antagonist tested at 100 nM, mean ± SEM (n); for delta opioid receptor antagonist activity (in words): smooth muscle preparations
T5 construct: and the mouse vas-deferens (MVD); from tissue; host or cells: mouse vas deferens
T5 sequence (P32300 whole entry): as the sequence (P32300 whole entry) above
Protocol: as §1

[8] = test system: mu opioid receptor; assay: Antagonism of morphine (M) in the electrically stimulated guinea-pig ileal longitudinal muscle (GPI) preparation; type: cell-based; settings: for M (μ) IC50 ratio: GPI, antagonist tested at 100 nM, mean ± SEM (n); for mu opioid receptor antagonist activity (in words): smooth muscle preparations; for M (μ) Ke: GPI preparation, agonist morphine, Ke derived from IC50 ratio
Protocol: as §1

SMILES	Ki [3]	binding to kappa receptor (in words) ([3]; cloned receptors, HEK-293)	Ki [4]	Ki [5]	Kb [6]	EK (κ) IC50 ratio [6]	kappa opioid receptor antagonist activity (in words) ([6]; smooth muscle preparations)	Kb [7]	DADLE (δ) IC50 ratio [7]	delta opioid receptor antagonist activity (in words) [7]	M (μ) IC50 ratio [8]	mu opioid receptor antagonist activity (in words) [8]	binding to delta receptor (in words) [4]	M (μ) Ke [8]	also measured
N=C(N)Nc1ccc2c3c([nH]c2c1)[C@@H]1Oc2c(O)ccc4c2[C@@]12CCN(CC1CC1)[C@H](C4)[C@]2(O)C3 [Compound 4b, 6′-Guanidino-17-(cyclopropylmethyl)-6,7-didehydro-4,5α-epoxy-3,14-hydroxyindolo-[2′,3′:6,7]morphinian]	0.00115 ± 0.00039 µM	kappa-selective	0.0203 ± 0.0067 µM	0.0818 ± 0.0207 µM											agonist potency relative to that of morphine ([1]; GPI assay, FIG. 5): 51 fold; agonist activity and selectivity (in words) ([1]; GPI assay, with MVD results): kappa-selective agonist; reversal of the agonist effect by naltrexone ([1]; GPI, naltrexone 500 nM): only partially reversed; reversal of the agonist effect by norBNI ([1]; GPI, norBNI 20 nM): completely reversed; agonist activity in MVD assay [2]: inactive as an agonist; affinity for kappa receptors relative to GNTI ([3]; cloned receptors, HEK-293): one-tenth
N=C(N)Nc1cccc2[nH]c3c(c12)C[C@@]1(O)[C@H]2Cc4ccc(O)c5c4[C@@]1(CCN2CC1CC1)[C@H]3O5 [Compound 4a, 4′-Guanidino-17-(cyclopropylmethyl)-6,7-didehydro-4,5α-epoxy-3,14-hydroxyindolo-[2′,3′:6,7]morphinian]		eliminated binding			0.08 µM	2.3 (2)	virtually inactive	0.263 µM	1.4 (2)	virtually inactive	0.34 (2)	virtually inactive	eliminated binding		binding to mu receptor (in words) ([5]; cloned receptors, HEK-293): eliminated binding
Oc1ccc2c3c1O[C@H]1c4[nH]c5c(c4C[C@@]4(O)[C@@H](C2)N(CC2CC2)CC[C@]314)C[C@@]1(O)[C@H]2Cc3ccc(O)c4c3[C@@]1(CCN2CC1CC1)[C@H]5O4 [Compound 1, Norbinaltorphimine, reference compound]														12.5 nM	Kb ([6]; GPI preparation, agonist ethylketazocine, Ke derived from IC50 ratio, read-out: EK (κ) Ke): 0.00041 µM
N=C(N)Nc1ccc2[nH]c3c(c2c1)C[C@@]1(O)[C@H]2Cc4ccc(O)c5c4[C@@]1(CCN2CC1CC1)[C@H]3O5 [Compound 3, 5′-Guanidino-17-(cyclopropylmethyl)-6,7-didehydro-4,5α-epoxy-3,14-hydroxyindolo-[2′,3′:6,7]morphinian, reference compound]	0.00014 ± 3e-05 µM		0.0248 ± 0.0113 µM	0.0997 ± 0.0087 µM	0.00016 µM		highly potent and selective kappa opioid receptor antagonist								kappa antagonist potency relative to norBNI 1 ([6]; smooth muscle preparations): approximately four-fold; affinity for the kappa receptor relative to mu and delta receptors ([3]; cloned receptors, HEK-293): greater than two orders of magnitude
N=C(N)Nc1cccc2c3c([nH]c12)[C@@H]1Oc2c(O)ccc4c2[C@@]12CCN(CC1CC1)[C@H](C4)[C@]2(O)C3 [Compound 4c, 7′-Guanidino-17-(cyclopropylmethyl)-6,7-didehydro-4,5α-epoxy-3,14-hydroxyindolo-[2′,3′:6,7]morphinian]	0.0691 ± 0.025 µM		0.00275 ± 0.00048 µM	0.181 ± 0.02 µM	0.1 µM	2.0 (2)	inactive	0.00096 µM	105 ± 30 (4)	potent delta opioid receptor antagonist	1.4 ± 0.9 (3)	inactive	delta selectivity	238 nM	
